Source: patent US20100267713A1, “4,4-DISUBSTITUTED PIPERIDINES” (priority 2007, published 2010)

Target: T1, renin (Homo sapiens, UniProt P00797)
T1 construct: This test measures the formation of angiotensin I in human plasma; from tissue; host or cells: human plasma
T1 sequence (P00797 67-406): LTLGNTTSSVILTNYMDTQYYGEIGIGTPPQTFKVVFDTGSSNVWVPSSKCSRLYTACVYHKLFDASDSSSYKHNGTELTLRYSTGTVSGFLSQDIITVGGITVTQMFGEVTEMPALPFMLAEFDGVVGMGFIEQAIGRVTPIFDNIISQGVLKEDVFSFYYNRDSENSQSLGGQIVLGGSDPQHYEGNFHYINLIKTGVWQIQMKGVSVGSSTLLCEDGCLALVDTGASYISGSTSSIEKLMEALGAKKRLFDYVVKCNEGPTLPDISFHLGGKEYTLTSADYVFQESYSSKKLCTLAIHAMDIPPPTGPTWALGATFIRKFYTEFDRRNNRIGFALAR
Experiment: formation of angiotensin I in human plasma, radioimmunoassay (Nussberger et al.)
Assay type: biochemical
Conditions: read-out: IC50, inhibition of the formation of angiotensin I
Experimental: The effect of renin inhibitors is detected inter alia experimentally by means of in vitro tests where the reduction in the formation of angiotensin I is measured in various systems (human plasma, purified human renin together with synthetic or natural renin substrate). The following in vitro test of Nussberger et al. (1987) J. Cardiovascular Pharmacol., Vol. 9, pp. 39-44, is used inter alia. This test measures the formation of angiotensin I in human plasma. The amount of angiotensin I formed is determined in a subsequent radioimmunoassay. The effect of inhibitors on the formation of angiotensin I is tested in this system by adding various concentrations of these substances. The IC50 is defined as the concentration of the particular inhibitor which reduces the formation of angiotensin I by 50%. The compounds of the present invention show inhibitory effects in the in vitro systems at minimal concentrations of about 10^−6 to about […].

IC50: 48 nM
SMILES: CCCc1nc(COC[C@@H](C)OCC)ccc1[C@@]1(O)CCNC[C@@H]1OCc1ccc2c(c1)N(CCCOC)CCO2 [Example 501, (3′S,4′S)-6-((R)-2-Ethoxy-propoxymethyl)-3′-[4-(3-methoxy-propyl)-3,4-dihydro-2H-benzo[1,4]oxazin-6-ylmethoxy]-2-propyl-2′,3′,5′,6′-tetrahydro-1′H-[3,4′]bipyridinyl-4′-ol]
